Test results from US11583569B2, “PSMA-targeting amanitin conjugates” (Heidelberg Pharma Research GmbH, priority 2017, dated 2023).

Experiments:
LNCaP (PSMA+) = format: cell-based; conditions: for S (selectivity): IC50 PC3 (PSMA−) / IC50 LNCaP (PSMA+); for TI for LNCaP: IC50 of free toxin / IC50 of conjugate; for IC50: LNCaP (PSMA+)
Excerpt: (§1) Note: A direct comparison of all DUPA conjugates with amanitin was not performed in one experiment. The amanitin curve shown in the graph is derived from the direct comparison between HDP 30.2284 and amanitin.

RNA-polymerase II = RNA-polymerase II (Homo sapiens, UniProt P24928); conditions: complex between amanitin and RNA-polymerase II; cited from earlier work
PC3 (PSMA−) = format: cell-based
Excerpt: as §1

SMILES | S (selectivity) (LNCaP (PSMA+)) | TI for LNCaP (LNCaP (PSMA+)) | Kd (RNA-polymerase II) [nM] | IC50 (LNCaP (PSMA+)) [nM] | IC50 (PC3 (PSMA−)) [nM]
CC[C@H](C)[C@@H]1NC(=O)CNC(=O)[C@@H]2Cc3c([nH]c4cc(OCc5ccc(NC(=O)[C@H](C)NC(=O)[C@@H](NC(=O)CCN6C(=O)CC(SC[C@H](NC(=O)[C@H](Cc7ccccc7)NC(=O)[C@H](Cc7ccccc7)NC(=O)CCCCCCCNC(=O)CC[C@H](NC(=O)N[C@@H](CCC(=O)O)C(=O)O)C(=O)O)C(=O)O)C6=O)C(C)C)cc5)ccc34)[S@+]([O-])C[C@H](NC(=O)CNC1=O)C(=O)N[C@@H](CC(N)=O)C(=O)N1C[C@H](O)C[C@H]1C(=O)N[C@@H]([C@@H](C)[C@@H](O)CO)C(=O)N2 (stereo partly drawn) [HDP 30.2535, 6′-O-[3-(3-(((DUPA-Aoc-Phe-Phe-Cys)-sulfanyl)-2,5-dioxopyrrolidin-1-yl)-propanamido)-Val-Ala-PAB]-α-amantin] | 191 | 253 | – | – | –
CC[C@H](C)[C@@H]1NC(=O)CNC(=O)[C@@H]2Cc3c([nH]c4cc(OCCC(C)SSC[C@H](NC(=O)[C@H](Cc5ccccc5)NC(=O)[C@H](Cc5ccccc5)NC(=O)CCCCCCCNC(=O)CC[C@H](NC(=O)N[C@@H](CCC(=O)O)C(=O)O)C(=O)O)C(=O)O)ccc34)[S@+]([O-])C[C@H](NC(=O)CNC1=O)C(=O)N[C@@H](CC(N)=O)C(=O)N1C[C@H](O)C[C@H]1C(=O)N[C@@H]([C@@H](C)[C@@H](O)CO)C(=O)N2 (stereo partly drawn) [HDP 30.2589] | 22.5 | 53 | – | – | –
CC[C@H](C)[C@@H]1NC(=O)CNC(=O)[C@@H]2Cc3c([nH]c4cc(O)ccc34)[S+]([O-])C[C@@H](NC(=O)CNC1=O)C(=O)N[C@@H](CC(N)=O)C(=O)N1C[C@H](O)C[C@H]1C(=O)N[C@@H]([C@@H](C)[C@@H](O)CO)C(=O)N2 (stereo in doubt) [α-amanitin, reference compound] | – | – | 3 | 479 | 213
CC[C@H](C)[C@@H]1NC(=O)CNC(=O)[C@H]2Cc3c([nH]c4cc(OCc5ccc(NC(=O)[C@H](C)NC(=O)[C@@H](NC(=O)CCCCCN6C(=O)CC(SC[C@H](NC(=O)[C@H](Cc7ccccc7)NC(=O)[C@H](Cc7ccccc7)NC(=O)CCCCCCCNC(=O)CCC(NC(=O)NC(CCC(=O)O)C(=O)O)C(=O)O)C(=O)O)C6=O)C(C)C)cc5)ccc34)[S+]([O-])C[C@H](NC(=O)CNC1=O)C(=O)N[C@@H](CC(N)=O)C(=O)N1C[C@H](O)C[C@H]1C(=O)N[C@@H]([C@@H](C)[C@@H](O)CO)C(=O)N2 (stereo partly drawn) [HDP 30.2284, 6′-O-[6-(3-(((DUPA-Aoc-Phe-Phe-Cys)-sulfanyl)-2,5-dioxopyrrolidin-1-yl)-hexanamido)-Val-Ala-PAB]-α-amantin] | 1819 | 555 | – | 0.863 | 1570
CC[C@H](C)[C@@H]1NC(=O)CNC(=O)[C@@H]2Cc3c([nH]c4cc(OCc5ccc(NC(=O)[C@H](C)NC(=O)[C@@H](NC(=O)CN6C(=O)C(SCCOCCOCCOCCOCCOCCOCCOCCNC(=O)[C@H](Cc7ccccc7)NC(=O)[C@H](Cc7ccccc7)NC(=O)CCCCCCCNC(=O)CC[C@H](NC(=O)N[C@@H](CCC(=O)O)C(=O)O)C(=O)O)=C(SCCOCCOCCOCCOCCOCCOCCOCCNC(=O)[C@H](Cc7ccccc7)NC(=O)[C@H](Cc7ccccc7)NC(=O)CCCCCCCNC(=O)CC[C@H](NC(=O)N[C@@H](CCC(=O)O)C(=O)O)C(=O)O)C6=O)C(C)C)cc5)ccc34)[S@+]([O-])C[C@H](NC(=O)CNC1=O)C(=O)N[C@@H](CC(N)=O)C(=O)N1C[C@H](O)C[C@H]1C(=O)N[C@@H]([C@@H](C)[C@@H](O)CO)C(=O)N2 [HDP 30.2490, 6′-O-[(3,4-(((DUPA-Aoc-Phe-Phe-PEGn)-sulfanyl)-2,5-dioxopyrrolidin-1-yl)-propanamido)-Val-Ala-PAB]-α-amantin] | 52.5 | 62 | – | – | –
CC[C@H](C)[C@@H]1NC(=O)CNC(=O)C2Cc3c([nH]c4cc(OCc5ccc(NC(=O)[C@H](C)NC(=O)[C@@H](NC(=O)CSC[C@@H](NC(=O)[C@H](Cc6ccccc6)NC(=O)[C@H](Cc6ccccc6)NC(=O)CCCCCCCNC(=O)CCC(NC(=O)NC(CCC(=O)O)C(=O)O)C(=O)O)C(=O)O)C(C)C)cc5)ccc34)[S+]([O-])CC(NC(=O)CNC1=O)C(=O)N[C@@H](CC(N)=O)C(=O)N1CC(O)C[C@H]1C(=O)N[C@@H]([C@@H](C)[C@@H](O)CO)C(=O)N2 (stereo partly drawn) [HDP 30.2515, 6′-O-[2-((DUPA-Aoc-Phe-Phe-Cys)-sulfanyl)-acetamido-Val-Ala-PAB]-α-amantin] | – | – | – | 4.51 | 663
CC[C@H](C)[C@@H]1NC(=O)CNC(=O)[C@@H]2Cc3c([nH]c4cc(OCc5ccc(NC(=O)[C@H](CCCNC(N)=O)NC(=O)[C@@H](NC(=O)CCCCCN6C(=O)CC(SC[C@H](NC(=O)[C@H](Cc7ccccc7)NC(=O)[C@H](Cc7ccccc7)NC(=O)CCCCCCCNC(=O)CC[C@H](NC(=O)N[C@@H](CCC(=O)O)C(=O)O)C(=O)O)C(=O)O)C6=O)C(C)C)cc5)ccc34)[S@+]([O-])C[C@H](NC(=O)CNC1=O)C(=O)N[C@@H](CC(N)=O)C(=O)N1C[C@H](O)C[C@H]1C(=O)N[C@@H]([C@@H](C)[C@@H](O)CO)C(=O)N2 (stereo partly drawn) [HDP 30.2537, 6′-O-[6-(3-(((DUPA-Aoc-Phe-Phe-Cys)-sulfanyl)-2,5-dioxopyrrolidin-1-yl)-hexanamido)-Val-Cit-PAI3]-α-amantin] | 148 | 371 | – | – | –
CC[C@H](C)[C@@H]1NC(=O)CNC(=O)[C@@H]2Cc3c([nH]c4cc(OCCCCCCN5C(=O)CC(SC[C@H](NC(=O)[C@H](Cc6ccccc6)NC(=O)[C@H](Cc6ccccc6)NC(=O)CCCCCCCNC(=O)CC[C@H](NC(=O)N[C@@H](CCC(=O)O)C(=O)O)C(=O)O)C(=O)O)C5=O)ccc34)[S@+]([O-])C[C@H](NC(=O)CNC1=O)C(=O)N[C@@H](CC(N)=O)C(=O)N1C[C@H](O)C[C@H]1C(=O)N[C@@H]([C@@H](C)[C@@H](O)CO)C(=O)N2 (stereo partly drawn) [HDP 30.2301, 6′-O-[6-(((DUPA-Aoc-Phe-Phe-Cys)-sulfanyl)-2,5-dioxopyrrolidin-1-yl)-hexyl]-α-amantin] | 249 | 78 | – | 6.11 | 1520
